Measured values reported in patent US4585777A, “(-)-Trans-4-(4-fluorophenyl)-3-(4-methoxyphenoxy)methylpiperidine for potentiating 5-HT” (A/S Ferrosan, priority 1984, dated 1986).

Tests used:
mice [1] = test: in vivo; details: for TI (Therapeutic Index), 001/173: LD50/ED50, mice s.c.; for FG 7080 is better by: T.I. Factor: factor by which FG 7080 is better than the listed compound; for FG 7080 is better by: T.I. %: percent by which FG 7080 is better than the listed compound
Text: (§1) (J. Buus Lassen, European Journal of Pharmacology 47, 351-358 (1978)). See also Squires in Acta Pharmacol. et Toxicol, 1972, 31 Suppl. 1,35 for a description of a further procedure for measurement of the same 5-HT uptake-inhibitory phenomenon.

5-HT uptake = test: Potentiation of 5-HTP (5-Hydroxytryptophane) induced hypermotility in mice (Procedure/Test 173); 5-HT potentiation or 5-HT uptake-inhibition; format: in vivo, mice (female, NMRI strain); details: for ED (2-fold activity of controls): Mus musculus, sc, read-out: Test 173: dose increasing the activity to double the activity of controls receiving 5-HTP alone (ED), mice, s.c.; for FG 7080 is better by: 5-HT Potentiation Factor: factor by which FG 7080 is better than the listed compound; for FG 7080 is better by: 5-HT Potentiation %: percent by which FG 7080 is better than the listed compound
Text: as §1
I. Potentiation of 5-HTP (5-Hydroxytryptophane) induced hypermotility in mice (Procedure 173)
(§2) This behavior is characterized by continuous jerky locomotion, head movements from side to side, abduction of the hind limbs, tremor, and lordosis.
Measurement of the motility after administration of test drugs to 5-HTP-pretreated mice is therefore used as a test for 5-HT-potentiation, which most probably proceeds through an inhibition of 5-HT uptake.
Method: Female mice of the NMRI strain weighing 20-22 g are used. The controls receive 5-HTP 150 mg/kg (15 ml/kg) i.p. (i.p.=intraperitoneally) and thirty (30) minutes later physiological saline (20 ml/kg) s.c. (s.c.=subcutaneously). The motility is measured by an Animex™ motimeter 45-75 minutes after 5-HTP administration. The test animals received test substances s.c. (20 ml/kg) instead of physiological saline. Five groups of two (2) mice are used for control and per dose of each test drug. the test substance is dosed according to the dose scale 1, 1.6, 2.5, 4, 6.3, and 10 mg/kg etc.
The best straight line is fitted through the points in a coordinate system (abscissa log dose, ordinate log activity). […] The activity of controls is investigated in thirty (30) groups of two (2) mice.

[2] = Acute Toxicity in Mice (Procedure/Test 001); format: in vivo; details: mouse, in vivo, sc, lethality at 24 hours, water-soluble salt
Text: (§3) II. Acute Toxicity in Mice (Procedure 001)
(§4) Results are expressed as LD50 = . . . mg/kg s.c.

in vivo = details: mouse, in vivo, sc, TI (Therapeutic Index), 001/173, LD50/ED50, mice s.c.
Text: as §1

mice [3] = test: Acute Toxicity in Mice (Procedure/Test 001); format: in vivo; details: s.c., lethality at 24 hours, water-soluble salt, 1440 min
Text: as §3, §4

mice [4] = test: Locomotor activity / behavior in mice after 5-HTP, with or without pretreatment (background of Procedure 173); format: in vivo
Text: as §2
Therefore, increased 5-HT in brain seems to be necessary for development of the abnormal behavior, but catecholamine release is probably not related to hyperactivity.

[5] = References 1-4, cited from earlier work
mice [6] = details: Reference 6; cited from earlier work
[7] = 5-HTP 150 mg/kg i.p. 30 min before, motility 45-75 min after 5-HTP, water-soluble salt
[8] = versus (+) trans isomer FG 8035

CC(=O)O.COc1ccc(OC[C@@H]2CNCC[C@H]2c2ccc(F)cc2)cc1 (single isomer, unassigned) [FG 8035, (+)-trans-4-(4-fluorophenyl)-3-((4-methoxyphenoxy)methyl)piperidine acetate]
TI (Therapeutic Index), 001/173 (mice [1]): 24 | ED (2-fold activity of controls) (5-HT uptake; [7]): 22 mg/kg | LD50 at 24 h [2]: 530 mg/kg

COc1ccc(OC[C@@H]2CN(C)CC[C@H]2c2ccccc2)cc1 (relative stereo) [FG 4932, reference compound]
selectivity ratio (in vivo): 13 | ED (2-fold activity of controls) (5-HT uptake; [7]): 7.7 mg/kg | LD50 at 24 h [2]: 100 mg/kg

COc1ccc(OC[C@@H]2CN(C)CC[C@H]2c2ccc(F)cc2)cc1.Cl (single isomer, unassigned) [FG 8032, (+)-trans-4-(4-fluorophenyl)-3-[(4-methoxyphenoxy)methyl]-1-methylpiperidine hydrochloride]
TI (Therapeutic Index), 001/173 (mice [1]): 17 | FG 7080 is better by: T.I. Factor (mice [1]): 58.82 | FG 7080 is better by: T.I. % (mice [1]): 5882% | ED (2-fold activity of controls) (5-HT uptake; [7]): 23 mg/kg | FG 7080 is better by: 5-HT Potentiation Factor (5-HT uptake): 23 | FG 7080 is better by: 5-HT Potentiation % (5-HT uptake): 2300% | LD50 at 24 h [2]: 400 mg/kg

COc1ccc(OC[C@@H]2CN(C)CC[C@H]2c2ccc(F)cc2)cc1 (relative stereo) [FG 98-I]
selectivity ratio (in vivo): 461 | FG 7080 is better by: T.I. Factor (mice [1]): 2.17 | FG 7080 is better by: T.I. % (mice [1]): 217% | ED (2-fold activity of controls) (5-HT uptake; [7]): 1.3 mg/kg | FG 7080 is better by: 5-HT Potentiation Factor (5-HT uptake): 1.3 | FG 7080 is better by: 5-HT Potentiation % (5-HT uptake): 130% | LD50 at 24 h [2]: 600 mg/kg

COc1ccc(OC[C@@H]2CN(C)CC[C@H]2c2ccccc2)cc1 (single isomer, unassigned) [FG 4962, reference compound]
TI (Therapeutic Index), 001/173 (mice [1]): 53 | FG 7080 is better by: T.I. Factor (mice [1]): 19.87 | FG 7080 is better by: T.I. % (mice [1]): 1887% | FG 7080 is better by: 5-HT Potentiation Factor (5-HT uptake): 3.8 | Test 173: dose increasing the activity to double the activity of controls receiving 5-HTP alone (ED) (5-HT uptake; mice, s.c., 5-HTP 150 mg/kg i.p. 30 min before, motility 45-75 min after 5-HTP, water-soluble salt): 3.8 mg/kg | FG 7080 is better by: 5-HT Potentiation % (5-HT uptake): 380% | Test 001: LD50 (mice [3]): 200 mg/kg

N[C@@H](Cc1c[nH]c2ccc(O)cc12)C(=O)O [5-HTP, 5-Hydroxytryptophane]
motility / locomotor activity (mice [4]; 5-HTP 150 mg/kg): producing a small decrease of motility | motility / locomotor activity (mice [4]; 5-HTP 600 mg/kg): increasing the activity | concentration of NA and DA ([5]; high doses, parenteral): decrease the concentration of NA and DA | brain concentration of 5-HT ([5]; parenteral treatment): increases the brain concentration of 5-HT

COc1ccc(OC[C@@H]2CN(C)CC[C@H]2c2ccc(F)cc2)cc1 (single isomer, unassigned) [FG 8033, (-)-trans-4-(4-fluorophenyl)-3-[(4-methoxyphenoxy)-methyl]-1-methyl-piperidine]
TI (Therapeutic Index), 001/173 (mice [1]): 800 | ED (2-fold activity of controls) (5-HT uptake; [7]): 0.5 mg/kg | LD50 at 24 h [2]: 400 mg/kg

Fc1ccc([C@@H]2CCNC[C@H]2COc2ccc3c(c2)OCO3)cc1 (single isomer, unassigned) [FG 7051]
LD50 at 24 h [2]: 285 mg/kg

NNCc1cccc(O)c1 [3-hydroxybenzylhydrazine]
effect of pretreatment on the hyperactivity (5-HTP plus 5-HT-uptake blocker) (mice [6]): inhibited it significantly

CC(N)(Cc1ccc(O)cc1)C(=O)O (stereo not drawn) [α-methyl-p-tyrosine]
effect of pretreatment on the hyperactivity (5-HTP plus 5-HT-uptake blocker) (mice [6]): does not influence this hyperactivity

CN1CC[C@@H](c2ccc(F)cc2)[C@H](COc2ccc3c(c2)OCO3)C1 (single isomer, unassigned) [FG 7043, reference compound]
selectivity ratio (in vivo): 63 | ED (2-fold activity of controls) (5-HT uptake; [7]): 4 mg/kg | LD50 at 24 h [2]: 250 mg/kg

COc1ccc(OC[C@@H]2CNCC[C@H]2c2ccc(F)cc2)cc1 (single isomer, unassigned) [FG 7080, (-)-trans-4-(4-fluorophenyl)-3-(4-methoxyphenoxy)methylpiperidine]
TI (Therapeutic Index), 001/173 (mice [1]): 1000 | Therapeutic Index compared with most structurally closely-related compounds, in words (mice [1]; Table I comparison): even more remarkably and unpredictably superior | superior as to Therapeutic Index, as % (mice [1]; versus FG 4996): > 7100% | superior by a factor as to Therapeutic Index (mice [1]; versus FG 4996): greater than 71 times | Therapeutic Index, as % (mice [1]; versus FG 7006): > 5500% | Therapeutic Index, times as great (mice [1]; versus FG 7006): more than 55 times | Therapeutic Index, as % (mice [1]; versus FG 8035): > 4100% | Therapeutic Index, times as great (mice [1]; versus FG 8035): more than 41 times | ED (2-fold activity of controls) (5-HT uptake; [7]): 1 mg/kg | 5-HT potentiation compared with most structurally closely-related compounds, in words (5-HT uptake; Table I comparison): remarkably and unpredictably superior | times as active in 5-HT potentiation (5-HT uptake; [8]): approximately 22 times | times as active in 5-HT potentiation, as % (5-HT uptake; [8]): ~2200% | superior as to 5-HT potentiation, as % (5-HT uptake; versus FG 4996): ~900% | superior by a factor as to 5-HT potentiation (5-HT uptake; versus FG 4996): approximately 9 times | 5-HT potentiation activity, as % (5-HT uptake; versus FG 7006): ~2000% | 5-HT potentiation activity, times as great (5-HT uptake; versus FG 7006): approximately 20 times | LD50 at 24 h [2]: 1000 mg/kg

COc1ccc(OC[C@@H]2CN(C)CC[C@H]2c2ccccc2)cc1 (single isomer, unassigned) [FG 4963, reference compound]
TI (Therapeutic Index), 001/173 (mice [1]): 134 | FG 7080 is better by: T.I. Factor (mice [1]): 7.46 | FG 7080 is better by: T.I. % (mice [1]): 746% | ED (2-fold activity of controls) (5-HT uptake; [7]): 2.8 mg/kg | FG 7080 is better by: 5-HT Potentiation Factor (5-HT uptake): 2.8 | FG 7080 is better by: 5-HT Potentiation % (5-HT uptake): 280% | LD50 at 24 h [2]: 375 mg/kg

COc1ccc(OC[C@@H]2CNCC[C@H]2c2ccccc2)cc1 (single isomer, unassigned) [FG 4996, reference compound]
selectivity ratio (in vivo): 14 | ED (2-fold activity of controls) (5-HT uptake; [7]): 9 mg/kg | Test 001: LD50 (mice [3]): 125 mg/kg
